Test results taken from patent US20150176022A1, “HERBICIDE-RESISTANT SUNFLOWER PLANTS, POLYNUCLEOTIDES ENCODING HERBICIDE=RESISTANT ACETO HYDROXY ACID SYNTHASE LARGE SUBUNIT PROTEINS, AND METHODS OF USE” (priority 2013, published 2015).

Tests used:
Experiment in all cases: Greenhouse whole-plant imazapir dose response (Example 8)
Assay type in all cases: in vivo, Helianthus annuus
[1] = system: sunflower TH1 (Hybrid, A205V); settings: 14 DAT
Method: (§1) A greenhouse study was conducted to quantify and contrast the imazapir sensitivity of the mutants A122T and A205V in different genetic backgrounds at the whole plant level in sunflower. Seeds of the different sunflower lines that were used in this study were obtained under field conditions.
(§2) Seeds were sown in Petri dishes and, after germination, plantlets were transplanted to pots of 10 cm of diameter in a potting media consisting of equal parts of vermiculite, soil and sand. Plants were grown in a greenhouse under natural light conditions supplemented with 400 W sodium halide lamps to provide a 16 hrs daylength. Day/night temperatures were 25 and 20° C., respectively. At the V2 stage 10 plants of each genotype were randomly assigned to each treatment consisting of […] imazapir doses (0, 40, 80, 160, 240, 320, 400 and 480 g ai/ha), and a zero-time biomass determination. Experiment was arranged as a randomized block design with a full factorial (sunflower line×treatment) arrangement of treatments and 10 replications.
(§3) On the day of herbicide application ten plants of each genotype were cut at the cotyledonal node and dried at 60° C. for 48 hrs zero-time for dried weight determination. […] Height was determined as the distance between the cotyledonal node and the apex of each plant. For root biomass determination, each plant was taken from the pot and the potting media was washed out from the roots. Above ground biomass data from each line were converted to biomass accumulation after application by subtracting the appropriate average zero-time biomass from each sample. Dry biomass data were converted to percentages of the untreated control plants within each line to allow direct comparisons between groups.

[2] = system: sunflower IB920 (Manteiner Line, A205V); settings: 14 DAT
Method: as §1, §2, §3

[3] = system: sunflower GIM 5-7 (Manteiner Line, A205V); settings: GIM5-7, 14 DAT
Method: as §1, §2, §3

[4] = system: sunflower TH6 (Hybrid, A122T); settings: 14 DAT
Method: as §1, §2, §3

[5] = system: sunflower TH9 (Hybrid, A205V); settings: 14 DAT
Method: as §1, §2, §3

SMILES: CC(C)C1(C)N=C(c2ncccc2C(=O)O)NC1=O (stereo not shown) [imazapir, imazapyr]
- Phytotoxicity Index ([1]; 0.5× (40 g ai/ha)): 0
- biomass accumulation (dry biomass, % of untreated) ([1]; 0.5× (40 g ai/ha)): 95.0%
- plant height (% of untreated) ([1]; 0.5× (40 g ai/ha)): 99.5%
- root dry weight (% of untreated) ([1]; 0.5× (40 g ai/ha)): 79.4%
- Phytotoxicity Index ([1]; 1× (80 g ai/ha)): 0
- biomass accumulation (dry biomass, % of untreated) ([1]; 1× (80 g ai/ha)): 89.6%
- plant height (% of untreated) ([1]; 1× (80 g ai/ha)): 99.5%
- root dry weight (% of untreated) ([1]; 1× (80 g ai/ha)): 70.7%
- Phytotoxicity Index ([1]; 2× (160 g ai/ha)): 1.8
- biomass accumulation (dry biomass, % of untreated) ([1]; 2× (160 g ai/ha)): 75.5%
- plant height (% of untreated) ([1]; 2× (160 g ai/ha)): 78.6%
- root dry weight (% of untreated) ([1]; 2× (160 g ai/ha)): 69.6%
- Phytotoxicity Index ([1]; 3× (240 g ai/ha)): 6.4
- biomass accumulation (dry biomass, % of untreated) ([1]; 3× (240 g ai/ha)): 60.4%
- plant height (% of untreated) ([1]; 3× (240 g ai/ha)): 48.4%
- root dry weight (% of untreated) ([1]; 3× (240 g ai/ha)): 42.3%
- Phytotoxicity Index ([1]; 4× (320 g ai/ha)): 8.0
- biomass accumulation (dry biomass, % of untreated) ([1]; 4× (320 g ai/ha)): 46.5%
- plant height (% of untreated) ([1]; 4× (320 g ai/ha)): 28.9%
- root dry weight (% of untreated) ([1]; 4× (320 g ai/ha)): 38.6%
- Phytotoxicity Index ([1]; 5× (400 g ai/ha)): 8.9
- biomass accumulation (dry biomass, % of untreated) ([1]; 5× (400 g ai/ha)): 38.9%
- plant height (% of untreated) ([1]; 5× (400 g ai/ha)): 25.3%
- root dry weight (% of untreated) ([1]; 5× (400 g ai/ha)): 34.7%
- Phytotoxicity Index ([1]; 6× (480 g ai/ha)): 9.0
- biomass accumulation (dry biomass, % of untreated) ([1]; 6× (480 g ai/ha)): 33.9%
- plant height (% of untreated) ([1]; 6× (480 g ai/ha)): 27.1%
- root dry weight (% of untreated) ([1]; 6× (480 g ai/ha)): 23.1%
- biomass accumulation (dry biomass, % of untreated) ([2]; 0.5× (40 g ai/ha)): 93.9%
- plant height (% of untreated) ([2]; 0.5× (40 g ai/ha)): 96.2%
- root dry weight (% of untreated) ([2]; 0.5× (40 g ai/ha)): 94.0%
- biomass accumulation (dry biomass, % of untreated) ([2]; 1× (80 g ai/ha)): 87.9%
- plant height (% of untreated) ([2]; 1× (80 g ai/ha)): 80.0%
- root dry weight (% of untreated) ([2]; 1× (80 g ai/ha)): 89.6%
- biomass accumulation (dry biomass, % of untreated) ([2]; 2× (160 g ai/ha)): 58.8%
- plant height (% of untreated) ([2]; 2× (160 g ai/ha)): 61.5%
- root dry weight (% of untreated) ([2]; 2× (160 g ai/ha)): 50.7%
- biomass accumulation (dry biomass, % of untreated) ([2]; 3× (240 g ai/ha)): 46.4%
- plant height (% of untreated) ([2]; 3× (240 g ai/ha)): 40.9%
- root dry weight (% of untreated) ([2]; 3× (240 g ai/ha)): 37.3%
- biomass accumulation (dry biomass, % of untreated) ([2]; 4× (320 g ai/ha)): 35.5%
- plant height (% of untreated) ([2]; 4× (320 g ai/ha)): 27.9%
- root dry weight (% of untreated) ([2]; 4× (320 g ai/ha)): 32.8%
- plant height (% of untreated) ([2]; 5× (400 g ai/ha)): 30.0%
- root dry weight (% of untreated) ([2]; 5× (400 g ai/ha)): 25.4%
- biomass accumulation (dry biomass, % of untreated) ([2]; 6× (480 g ai/ha)): 29.4%
- root dry weight (% of untreated) ([2]; 6× (480 g ai/ha)): 19.4%
- biomass accumulation (dry biomass, % of untreated) ([3]; 0.5× (40 g ai/ha)): 92.9%
- plant height (% of untreated) ([3]; 0.5× (40 g ai/ha)): 79.1%
- root dry weight (% of untreated) ([3]; 0.5× (40 g ai/ha)): 79.2%
- biomass accumulation (dry biomass, % of untreated) ([3]; 1× (80 g ai/ha)): 75.1%
- plant height (% of untreated) ([3]; 1× (80 g ai/ha)): 76.7%
- root dry weight (% of untreated) ([3]; 1× (80 g ai/ha)): 56.3%
- biomass accumulation (dry biomass, % of untreated) ([3]; 2× (160 g ai/ha)): 55.1%
- plant height (% of untreated) ([3]; 2× (160 g ai/ha)): 57.7%
- root dry weight (% of untreated) ([3]; 2× (160 g ai/ha)): 40.6%
- biomass accumulation (dry biomass, % of untreated) ([3]; 3× (240 g ai/ha)): 45.6%
- plant height (% of untreated) ([3]; 3× (240 g ai/ha)): 55.3%
- root dry weight (% of untreated) ([3]; 3× (240 g ai/ha)): 40.2%
- biomass accumulation (dry biomass, % of untreated) ([3]; 4× (320 g ai/ha)): 31.8%
- plant height (% of untreated) ([3]; 4× (320 g ai/ha)): 27.3%
- root dry weight (% of untreated) ([3]; 4× (320 g ai/ha)): 34.0%
- biomass accumulation (dry biomass, % of untreated) ([3]; 5× (400 g ai/ha)): 34.2%
- plant height (% of untreated) ([3]; 5× (400 g ai/ha)): 37.2%
- root dry weight (% of untreated) ([3]; 5× (400 g ai/ha)): 48.5%
- biomass accumulation (dry biomass, % of untreated) ([3]; 6× (480 g ai/ha)): 36.8%
- plant height (% of untreated) ([3]; 6× (480 g ai/ha)): 30.0%
- root dry weight (% of untreated) ([3]; 6× (480 g ai/ha)): 43.1%
- Phytotoxicity Index ([4]; 0.5× (40 g ai/ha)): 0.5
- biomass accumulation (dry biomass, % of untreated) ([4]; 0.5× (40 g ai/ha)): 100%
- plant height (% of untreated) ([4]; 0.5× (40 g ai/ha)): 99.2%
- root dry weight (% of untreated) ([4]; 0.5× (40 g ai/ha)): 100%
- Phytotoxicity Index ([4]; 1× (80 g ai/ha)): 0.5
- biomass accumulation (dry biomass, % of untreated) ([4]; 1× (80 g ai/ha)): 97.2%
- plant height (% of untreated) ([4]; 1× (80 g ai/ha)): 98.6%
- root dry weight (% of untreated) ([4]; 1× (80 g ai/ha)): 98.1%
- Phytotoxicity Index ([4]; 2× (160 g ai/ha)): 0.5
- biomass accumulation (dry biomass, % of untreated) ([4]; 2× (160 g ai/ha)): 97.9%
- plant height (% of untreated) ([4]; 2× (160 g ai/ha)): 100.3%
- root dry weight (% of untreated) ([4]; 2× (160 g ai/ha)): 96.2%
- Phytotoxicity Index ([4]; 3× (240 g ai/ha)): 0.5
- biomass accumulation (dry biomass, % of untreated) ([4]; 3× (240 g ai/ha)): 98.2%
- plant height (% of untreated) ([4]; 3× (240 g ai/ha)): 99.6%
- root dry weight (% of untreated) ([4]; 3× (240 g ai/ha)): 79.3%
- Phytotoxicity Index ([4]; 4× (320 g ai/ha)): 0.5
- biomass accumulation (dry biomass, % of untreated) ([4]; 4× (320 g ai/ha)): 97.8%
- plant height (% of untreated) ([4]; 4× (320 g ai/ha)): 101.0%
- root dry weight (% of untreated) ([4]; 4× (320 g ai/ha)): 78.4%
- Phytotoxicity Index ([4]; 5× (400 g ai/ha)): 0.5
- biomass accumulation (dry biomass, % of untreated) ([4]; 5× (400 g ai/ha)): 85.1%
- plant height (% of untreated) ([4]; 5× (400 g ai/ha)): 87.0%
- root dry weight (% of untreated) ([4]; 5× (400 g ai/ha)): 85.8%
- Phytotoxicity Index ([4]; 6× (480 g ai/ha)): 0.5
- biomass accumulation (dry biomass, % of untreated) ([4]; 6× (480 g ai/ha)): 79.5%
- plant height (% of untreated) ([4]; 6× (480 g ai/ha)): 79.6%
- root dry weight (% of untreated) ([4]; 6× (480 g ai/ha)): 57.3%
- Phytotoxicity Index ([5]; 0.5× (40 g ai/ha)): 0
- biomass accumulation (dry biomass, % of untreated) ([5]; 0.5× (40 g ai/ha)): 91.7%
- plant height (% of untreated) ([5]; 0.5× (40 g ai/ha)): 100.0%
- root dry weight (% of untreated) ([5]; 0.5× (40 g ai/ha)): 81.5%
- Phytotoxicity Index ([5]; 1× (80 g ai/ha)): 0
- biomass accumulation (dry biomass, % of untreated) ([5]; 1× (80 g ai/ha)): 81.7%
- plant height (% of untreated) ([5]; 1× (80 g ai/ha)): 100.0%
- root dry weight (% of untreated) ([5]; 1× (80 g ai/ha)): 84.9%
- Phytotoxicity Index ([5]; 2× (160 g ai/ha)): 1.6
- biomass accumulation (dry biomass, % of untreated) ([5]; 2× (160 g ai/ha)): 54.7%
- plant height (% of untreated) ([5]; 2× (160 g ai/ha)): 78.9%
- root dry weight (% of untreated) ([5]; 2× (160 g ai/ha)): 58.8%
- Phytotoxicity Index ([5]; 3× (240 g ai/ha)): 5.1
- biomass accumulation (dry biomass, % of untreated) ([5]; 3× (240 g ai/ha)): 35.7%
- plant height (% of untreated) ([5]; 3× (240 g ai/ha)): 50.0%
- root dry weight (% of untreated) ([5]; 3× (240 g ai/ha)): 34.1%
- Phytotoxicity Index ([5]; 4× (320 g ai/ha)): 8.4
- biomass accumulation (dry biomass, % of untreated) ([5]; 4× (320 g ai/ha)): 25.3%
- plant height (% of untreated) ([5]; 4× (320 g ai/ha)): 38.1%
- root dry weight (% of untreated) ([5]; 4× (320 g ai/ha)): 27.3%
- Phytotoxicity Index ([5]; 5× (400 g ai/ha)): 8.9
- biomass accumulation (dry biomass, % of untreated) ([5]; 5× (400 g ai/ha)): 19.8%
- plant height (% of untreated) ([5]; 5× (400 g ai/ha)): 31.8%
- root dry weight (% of untreated) ([5]; 5× (400 g ai/ha)): 29.9%
- Phytotoxicity Index ([5]; 6× (480 g ai/ha)): 8.9
- biomass accumulation (dry biomass, % of untreated) ([5]; 6× (480 g ai/ha)): 19.5%
- plant height (% of untreated) ([5]; 6× (480 g ai/ha)): 34.7%
- root dry weight (% of untreated) ([5]; 6× (480 g ai/ha)): 22.1%
